Measured values published in PubChem BioAssay (NCI).
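Step 1: Grow cells in 96-well plates. Step 2: Expose to compound for 48 hours at 5 concentrations. Step 3: Interpolate endpoints linearly; if unreached, use highest concentration. TGI denotes the concentration required for complete inhibition of growth.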

Tests used:
Assay in all cases: DTP human tumour cell line panel, 48 h
DMS 114 small cell lung = system: DMS 114 small cell lung
MDA-N = system: MDA-N
BT-549 breast = system: BT-549 breast
XF 498 CNS = system: XF 498 CNS
SNB-78 CNS = system: SNB-78 CNS
M19-MEL melanoma = system: M19-MEL melanoma
DLD-1 colon = system: DLD-1 colon
HOP-18 NSCLC = system: HOP-18 NSCLC
LXFL 529 NSCLC = system: LXFL 529 NSCLC
RXF-631 renal = system: RXF-631 renal

Row | SMILES | TGI (DMS 114 small cell lung) [µM] | TGI (MDA-N) [µM] | TGI (BT-549 breast) [µM] | TGI (XF 498 CNS) [µM] | TGI (SNB-78 CNS) [µM] | TGI (M19-MEL melanoma) [µM] | TGI (DLD-1 colon) [µM] | TGI (HOP-18 NSCLC) [µM] | TGI (LXFL 529 NSCLC) [µM] | TGI (RXF-631 renal) [µM]
1 | CCCCCCCCCCCCCC(=O)NO | 27.2 | > 100 | 33.1 | 60.3 | > 95 | 56.3 | > 94.8 | 81.6 | 38.7 | > 62.5
2 | CC(/C=C1\CCC(CN(C)C)C1=O)c1cccc(Br)c1 (configuration not stated) | 54.8 | – | – | 35.1 | 44.7 | 50.2 | 35.1 | 33.9 | 17.1 | 16.9
3 | C=C1CCCC2OC(OC)CCC12 (configuration not stated) | > 100 | – | – | > 100 | > 100 | > 100 | > 100 | > 100 | > 100 | > 100
4 | O=[N+]([O-])c1cc(C(F)(F)F)cc2n[se]nc12 | 5.92 | 3.85 | 7.52 | 5.66 | 25.9 | 10.6 | 8.93 | 8.96 | 3.14 | 30.8
5 | COC(=O)/C(=N\Nc1nc(=S)[nH]n1N)C(C#N)c1ccc(Cl)cc1 (configuration not stated) | > 100 | – | – | > 100 | > 100 | > 100 | > 100 | > 100 | > 100 | > 100
6 | CCCCCC1CC=CC(NC(=O)OCc2ccccc2)C1/C=C/CCCC1OCCO1 (configuration not stated) | > 100 | – | – | > 100 | > 100 | > 100 | > 100 | > 100 | > 100 | > 100
